Data reported in ChEMBL document CHEMBL1135172, “High-throughput synthesis optimization of sulfonamide NPY Y5 antagonists” (Bioorg Med Chem Lett, 2002).
pKi: −log10 of the molar value.

Target: T1, Neuropeptide Y receptor type 5 (Homo sapiens, UniProt Q15761)
T1 sequence (Q15761 whole entry): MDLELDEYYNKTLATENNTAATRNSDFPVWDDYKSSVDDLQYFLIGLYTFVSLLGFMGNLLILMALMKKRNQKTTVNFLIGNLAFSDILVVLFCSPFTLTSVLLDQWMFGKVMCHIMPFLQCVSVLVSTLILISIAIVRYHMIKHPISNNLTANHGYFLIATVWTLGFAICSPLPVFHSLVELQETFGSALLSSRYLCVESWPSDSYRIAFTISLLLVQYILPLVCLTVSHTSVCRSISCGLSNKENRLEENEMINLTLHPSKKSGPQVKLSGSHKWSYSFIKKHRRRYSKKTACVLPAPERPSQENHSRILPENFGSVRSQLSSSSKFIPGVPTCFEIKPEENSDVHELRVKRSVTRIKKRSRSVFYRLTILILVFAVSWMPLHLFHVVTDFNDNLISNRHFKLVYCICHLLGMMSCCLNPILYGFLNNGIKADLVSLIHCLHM
Test: Displacement of [125I]PYY from human Neuropeptide Y receptor type 5 in COS-7 cell membranes

Row | Structure (SMILES) | pKi
1 | O=C(NC[C@H]1CC[C@H](CNS(=O)(=O)c2ccc3ccccc3c2)CC1)C1CCc2ccccc2C1 (some centres undefined) | < 4.00
2 | O=C(NC[C@H]1CC[C@H](CNS(=O)(=O)c2ccccc2[N+](=O)[O-])CC1)Nc1cccc2ccccc12 | 6.99
3 | O=C(NCCCCCCNS(=O)(=O)c1ccccc1[N+](=O)[O-])Nc1cccc2ccccc12 | 6.82
4 | O=C(NCCCCCCNS(=O)(=O)c1ccccc1[N+](=O)[O-])c1ccc2ccccc2c1 | 6.39
5 | O=S(=O)(NC[C@H]1CC[C@H](CNCc2ccc3c(c2)OCCO3)CC1)c1cccc2ccccc12 | 7.92
6 | O=C(NC[C@H]1CC[C@H](CNS(=O)(=O)c2cccc3ccccc23)CC1)C1CCc2ccccc2C1 (some centres undefined) | 5.39
7 | O=C(NCCCCCCNS(=O)(=O)c1ccccc1[N+](=O)[O-])C1CCc2ccccc2C1 (centres undefined) | 7.34
8 | O=C(NCCCCCCNS(=O)(=O)c1cccc2ccccc12)C1CCc2ccccc2C1 (centres undefined) | 6.14
9 | O=C(NC[C@H]1CC[C@H](CNS(=O)(=O)c2ccc3cccc([N+](=O)[O-])c3c2)CC1)C1CCc2ccccc2C1 (some centres undefined) | 6.14

The remaining compounds from weak to strong by pKi, led by results:

Row | pKi | Structure (SMILES)
10 | 6.14 | O=C(NCCCCNS(=O)(=O)c1ccccc1[N+](=O)[O-])Nc1cccc2ccccc12
11 | 6.37 | Cc1ccc(S(=O)(=O)NC(Cc2ccccc2)C(=O)NCCCCCCNS(=O)(=O)c2cccc3ccccc23)cc1 (centres undefined)
12 | 6.64 | O=C(NCCCCCCNS(=O)(=O)c1cccc2ccccc12)Nc1cccc2ccccc12
13 | 6.70 | Cc1ccc(S(=O)(=O)NC(Cc2ccccc2)C(=O)NC[C@H]2CC[C@H](CNS(=O)(=O)c3ccc4ccccc4c3)CC2)cc1 (some centres undefined)
14 | 7.02 | O=C(NC[C@H]1CC[C@H](CNS(=O)(=O)c2cccc3ccccc23)CC1)Nc1ccc(Cl)c(Cl)c1
